Experimental data: patent US11731943B2, “Therapeutic compounds, compositions and methods of use thereof” (priority 2016, dated 2023)
Read-outs that look alike come from different tables or passages of the source.

Columns and labels:
[1] = test system: JAK1-dependent STAT6 phosphorylation downstream of IL-13 stimulation in BEAS-2B human bronchial epithelial cells; assay: JAK1 pathway assay in BEAS-2B cells (IL-13-pSTAT6, MSD); type: cell-based; conditions: BEAS-2B cells, IL-13 stimulation, read-out: IL-13 p-STAT6 BEAS-2B IC50
[2] = target: isolated recombinant JAK2 kinase domain (Homo sapiens (Human), UniProt O60674); assay: JAK2 enzyme assay (Caliper LabChip, Ki); type: biochemical
Sequence of isolated recombinant JAK2 kinase domain (O60674 849-1124): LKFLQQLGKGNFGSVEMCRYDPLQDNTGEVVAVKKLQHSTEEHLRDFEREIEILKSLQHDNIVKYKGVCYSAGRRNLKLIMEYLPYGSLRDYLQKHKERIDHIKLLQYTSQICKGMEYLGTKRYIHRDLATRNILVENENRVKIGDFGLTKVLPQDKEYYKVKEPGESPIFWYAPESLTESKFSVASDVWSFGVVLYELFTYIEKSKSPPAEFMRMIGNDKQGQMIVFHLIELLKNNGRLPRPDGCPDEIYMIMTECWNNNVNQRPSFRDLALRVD
Procedure, shortened: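 Recombinant human JAK1 or JAK2 kinase domain phosphorylating a 5-carboxyfluorescein-labelled JAK3-derived peptide; 30 min at 22 °C, stopped with EDTA (50 mM final). Phosphorylated product measured as a fraction of total peptide by Caliper LabChip mobility shift.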

[3] = target: isolated recombinant JAK1 kinase domain (Homo sapiens (Human), UniProt P23458); assay: JAK1 enzyme assay (Caliper LabChip, Ki); type: biochemical; conditions: read-out: JAK1 Ki
Sequence of isolated recombinant JAK1 kinase domain (P23458 875-1153): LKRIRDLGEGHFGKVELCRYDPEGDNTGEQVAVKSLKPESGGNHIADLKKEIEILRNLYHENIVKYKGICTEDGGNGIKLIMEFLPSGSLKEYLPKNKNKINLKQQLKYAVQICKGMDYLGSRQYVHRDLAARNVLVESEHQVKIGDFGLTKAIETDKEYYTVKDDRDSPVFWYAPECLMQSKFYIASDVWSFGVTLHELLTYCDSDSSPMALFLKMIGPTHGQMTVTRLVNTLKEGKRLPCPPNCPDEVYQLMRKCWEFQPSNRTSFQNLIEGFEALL
Procedure, shortened: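 Recombinant human JAK1 kinase domain phosphorylating an N-terminally 5-carboxyfluorescein-labelled JAK3-derived peptide, 30 min at 22 °C, stopped with EDTA (50 mM final). Phosphorylated fraction of total peptide read by Caliper LabChip mobility shift; Ki from Morrison tight-binding fit corrected for ATP competition (Ki=Ki,app/(1+[ATP]/Km,app)).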

| SMILES | IC50 ([1]; Homo sapiens, BEAS-2B) [nM] | Ki [2] [nM] | Ki [3] [nM] | IC50 [1] [nM] |
| --- | --- | --- | --- | --- |
| Cc1cc(CN2CCC(CC#N)(n3cc(C(N)=O)c(NC(=O)C4CC4)n3)CC2)ccc1-c1ccccc1 [Example 160, 1-[4-(cyanomethyl)-1-[(3-methyl-4-phenyl-phenyl)methyl]-4-piperidyl]-3-(cyclopropanecarbonylamino) pyrazole-4-carboxamide] | 186 | 12 | 3.2 | – |
| N#CCC1(n2cc(C(N)=O)c(NC(=O)C3CC3)n2)CCN(C(=O)NC2CC(F)(F)C2)CC1 [Example 21, 4-(4-Carbamoyl-3-(cyclopropanecarboxamido)-1H-pyrazol-1-yl)-4-(cyanomethyl)-N-(3,3-difluorocyclobutyl) piperidine-1-carboxamide] | > 1000 | 48.4 | 2.3 | – |
| CC(C)S(=O)(=O)Nc1cccc(CN2CCC(CC#N)(n3cc(C(N)=O)c(NC(=O)C4CC4)n3)CC2)c1 [Example 94] | > 1000 | 21.8 | 4.1 | – |
| COC(=O)Nc1nn(C2(CC#N)CCN(Cc3ccc(-c4ccccc4)nc3F)CC2)cc1C(N)=O [Example 198, methyl N-[4-carbamoyl-1-[4-(cyanomethyl)-1-[(2-fluoro-6-phenyl-3-pyridyl)methyl]-4-piperidyl]pyrazol-3-yl]carbamate] | 74 | 3.8 | 1.2 | – |
| N#CCC1(n2cc(C(N)=O)c(NC(=O)C3CC3)n2)CCN(Cc2ccc(-c3ccn(CC(F)(F)F)n3)c(F)c2)CC1 [Example 190, 1-[4-(cyanomethyl)-1-[[3-fluoro-4-[1-(2,2,2-trifluoroethyl)pyrazol-3-yl]phenyl]methyl]-4-piperidyl]-3-(cyclopropanecarbonylamino) pyrazole-4-carboxamide] | 93 | 11 | 1.1 | – |
| COC(=O)Nc1nn(C2(CC#N)CCN(Cc3ccc(-c4ccco4)cc3)CC2F)cc1C(N)=O (stereo not drawn) [Example 220, methyl N-[4-carbamoyl-1-[4-(cyanomethyl)-3-fluoro-1-[[4-(2-furyl)phenyl]methyl]-4-piperidyl]pyrazol-3-yl]carbamate] | 15 | 0.44 | 0.27 | – |
| COC(=O)Nc1nn(C2(CC#N)CCN(Cc3ccc(C4=CCCCC4)cc3)CC2F)cc1C(N)=O (stereo not drawn) [Example 257, methyl N-[4-carbamoyl-1-[4-(cyanomethyl)-1-[[4-(cyclohexen-1-yl)phenyl]methyl]-3-fluoro-4-piperidyl]pyrazol-3-yl]carbamate] | 52 | 1.3 | 0.73 | – |
| N#CCC1(n2cc(C(N)=O)c(NC(=O)C3CC3)n2)CCN(Cc2ccc(-n3nccn3)c(O)c2)CC1 [Example 277, 1-[4-(cyanomethyl)-1-[[3-hydroxy-4-(triazol-2-yl)phenyl]methyl]-4-piperidyl]-3-(cyclopropanecarbonylamino) pyrazole-4-carboxamide] | 40 | 1.9 | 0.74 | – |
| COC(=O)Nc1nn(C2(CC#N)CCN(Cc3ccc(-c4ccccc4)c(O)c3)CC2)cc1C(N)=O [Example 186, Methyl (4-carbamoyl-1-(4-(cyanomethyl)-1-((2-hydroxy-[1,1′-biphenyl]-4-yl) Methyl)piperidin-4-yl)-1H-pyrazol-3-yl)carbamate] | 68 | 1 | 0.24 | – |
| COC(=O)Nc1nn(C2(CC#N)CCN(Cc3cnc(-c4ccccc4)cc3F)CC2F)cc1C(N)=O (stereo not drawn) [Example 251, methyl N-[4-carbamoyl-1-[4-(cyanomethyl)-3-fluoro-1-[(4-fluoro-6-phenyl-3-pyridyl)methyl]-4-piperidyl]pyrazol-3-yl]carbamate] | 30 | 0.3 | 0.34 | – |
| N#CCC1(n2cc(C(N)=O)c(NC(=O)C3CC3)n2)CCC(Oc2ccc(-c3ccccc3)cc2)CC1 (single isomer, unassigned) [Example 211, 1-(4-([1,1′-Biphenyl]-4-yloxy)-1-(cyanomethyl)cyclohexyl)-3-(cyclopropanecarboxamido)-1H-pyrazole-4-carboxamide] | – | 4.6 | 0.74 | 26 |
